Reference: patent publication US20210100242A1, “FORMULATIONS FOR CONTROL AND REPELLENCY OF BITING ARTHROPODS” (BEDOUKIAN RESEARCH, INC., priority 2019, published 2021)

Tested on: Adult female Aedes aegypti
Assay: Membrane feeder repellency test: mosquitoes probing treated collagen membranes over blood-filled wells
Type: in vivo
Conditions: Total repellent 0.30%
Procedure: Adult female Aedes aegypti were obtained from the i2LResearch USA, Inc. colony. Two hundred fifty (250) mosquitoes were used per replicate (seven replicates). Mosquitoes were at least 6 days old and had been deprived of sucrose solution for at least 18 hours prior to testing.
An exposure container was used to present the mosquitoes with a choice of blood-filled wells that were covered with collagen membranes (3 cm in diameter). The collagen membranes were treated by pipetting 6.25 μl of the test treatment onto the appropriate membrane and spreading it evenly with the tip of the pipette.
Exposure container. A 30.5 cm×30.5 cm×30.5 cm container (rigid plastic frame and a sleeved entry on one side and a sliding trap door on the bottom). The container was supported by four (4 cm high) legs.
Membrane feeder. Five wells (3 cm in diameter x 8 mm in depth) in line on a hollow plastic block (6 cm wide x 22 cm long x 3 cm deep). The plastic block fit into the bottom of the exposure container. Hoses mounted on either end of the membrane feeder carried warm water that was pumped from a water bath. The sliding plastic trap door in the bottom of the exposure container covered and uncovered the wells in the membrane feeder, allowing mosquitoes to access the blood-filled wells that were covered with treated collagen membranes.
Study set-up. The membrane feeder was connected to a heated water bath, and warm water passed through the feeder via a circulating pump so that the wells were warmed to 96-100° F. Seventy-two (72) mg of ATP (disodium salt) were added to 26 ml of bovine blood. Sodium citrate was also added to the blood during collection to prevent clotting. The blood was poured into the wells until it completely filled each well (meniscus slightly above the level of the well).
Circular pieces (3 cm in diameter) of collagen membrane were placed over each of the wells. […]
Treatment and exposure to mosquitoes. […] The number of mosquitoes probing the membrane covering each well was recorded every two minutes for twenty minutes. […]

SMILES | Test result, percentage relative to 0.3 wt % DEET in the same test
CCN(CC)C(=O)c1cccc(C)c1 [DEET, N,N-diethyl-m-toluamide, reference compound] | 100.0%
CC1CCC(C(C)(C)O)C(O)C1 (stereo not drawn) [PMD, para-menthane-3,8-diol, reference compound] | 84.6%
CCNC(=O)C1CC(C)CCC1C(C)C (stereo not drawn) [WS3, N-ethyl-p-menthane-3-carboxamide] | 130.0%
